Reference: US20070072815A1, “Methods and kits to increase the efficiency of oligonucleotide-directed nucleic acid sequence alteration” (priority 2004, published 2007)
Entries after “also recorded” stand apart in the source; their conditions may differ.

Tested on: DNA of DLD-1-1 cells
Assay: Pulsed-field gel electrophoresis of DNA damage (double strand breaks)
Type: cell-based
Details: HU 0.3, 1 or 5 mM; VP16 0.5, 1 or 3 μM; 24 hours
Procedure: The cells are released by trypsinization and melted in the agarose inserts. The agarose inserts are incubated in 0.5M EDTA—1% N-laurosylsarcosine—proteinase K (1 mg/ml) at 50° C. for 48 hrs and then washed four times in TE buffer prior to loading on a 1% agarose gel (Pulse-Field Certified Agarose, Bio-Rad, Hercules, Calif.) and DNA separation by pulsed-field gel electrophoresis is carried out for 24 hrs (Bio-Rad, 120° field angle, 60 to 240s switch time, 4 V/cm). The gel is subsequently stained with ethidium bromide and analyzed with AlphaImager™ 2200. (Alpha Innotech Corp., San Leandro, Calif.).
The effects of MMS and bleomycin on oligonucleotide-directed gene alteration are determined as follows. DLD-1-1 cells are seeded in 100 mm dishes at 2×10^6 cells per plate and immediately treated with 0.2 μM MMS or 0.75 μM bleomycin. The cells are then grown for 24 hours, until approximately 50% confluent, and washed twice with PBS. A portion of each population of cells is removed for DNA analysis by pulsed-field electrophoresis, as described in Example 1. The correcting oligo EGFP/72NT (10 μg) is then added and the cells are electroporated as in Example 3. Cells are then analyzed to determine the percentage of cells with corrected eGFP genes as described in Example 3.

## NC(=O)NO [HU, hydroxyurea]
  DNA double strand breaks: induce DSBs; also recorded: progressive increase in the amount of damaged DNA
